This passage reports TD50 and carcinogen call results from PubChem BioAssay AID1745844 (Carcinogenic Potency Database (CPDB), 2022).

This data set deals with rodent lifetime carcinogenesis bioassay, tumor incidence TD50. Description: chronic cancer bioassays in animals – CPDB, compiled studies (AID 1745844).

Each structure is given as a SMILES string. The source made the active and inactive calls. No rule for the calls is given here.

On to `NC(=O)NN=Cc1ccc([N+](=O)[O-])o1`, for which the TD50 is 66.2 mg/kg/day (mouse, strain B6C3F1, females, in feed, site: any site (literature study), lesion: several types, types named in the paper, dosed 103 weeks, study length 104 weeks); 241 mg/kg/day (mouse, strain B6C3F1, females, in feed, site: lung, lesion: alveolar/bronchiolar adenoma + alveolar/bronchiolar carcinoma, dosed 103 weeks, study length 104 weeks); 22.4 mg/kg/day (mouse, strain B6C3F1, females, in feed, site: ovary, lesion: granulosa-cell tumor + mixed tumor, benign, dosed 103 weeks, study length 104 weeks); 124 mg/kg/day (mouse, strain B6C3F1, females, in feed, site: ovary, lesion: granulosa-cell tumor, dosed 103 weeks, study length 104 weeks); 29.8 mg/kg/day (mouse, strain B6C3F1, females, in feed, site: ovary, lesion: mixed tumor, benign + tubular adenoma, dosed 103 weeks, study length 104 weeks); 30.8 mg/kg/day (mouse, strain B6C3F1, females, in feed, site: ovary, lesion: mixed tumor, benign, dosed 103 weeks, study length 104 weeks). Besides, the TD50 (mouse, strain B6C3F1, males, in feed, site: any site (literature study), lesion: several types, types named in the paper, dosed 103 weeks, study length 104 weeks) was 89.3 mg/kg/day; the TD50 (mouse, strain B6C3F1, males, in feed, site: liver, lesion: hepatocellular adenoma + hepatocellular carcinoma + neoplastic nodule, dosed 103 weeks, study length 104 weeks) came out at 152 mg/kg/day; the TD50 (mouse, strain B6C3F1, males, in feed, site: lung, lesion: alveolar/bronchiolar adenoma + alveolar/bronchiolar carcinoma, dosed 103 weeks, study length 104 weeks) was 1380 mg/kg/day; the TD50 (mouse, strain B6C3F1, males, in feed, site: subcutaneous tissue, lesion: fibrosarcoma + fibroma + neurofibrosarcoma + sarcoma, NOS, dosed 103 weeks, study length 104 weeks) is 154 mg/kg/day (inactive); the TD50 (rat, strain Fischer 344, females, in feed, site: liver, lesion: hepatocellular adenoma + hepatocellular carcinoma + neoplastic nodule, dosed 103 weeks, study length 104 weeks) was determined as 253 mg/kg/day; the TD50 (rat, strain Fischer 344, females, in feed, site: mammary gland, lesion: fibroadenoma, dosed 103 weeks, study length 104 weeks) is 15.7 mg/kg/day. Further, the TD50 is, setting by setting: (rat, strain Fischer 344, males, in feed, site: any site (literature study), lesion: several types, types named in the paper, dosed 103 weeks, study length 104 weeks) 33.8 mg/kg/day; (rat, strain Fischer 344, males, in feed, site: preputial gland, lesion: carcinoma, NOS, dosed 103 weeks, study length 104 weeks) 65.5 mg/kg/day; (rat, strain Fischer 344, males, in feed, site: skin, lesion: sebaceous adenoma + trichoepithelioma, dosed 103 weeks, study length 104 weeks) 151 mg/kg/day; (rat, strain Fischer 344, males, in feed, site: skin, lesion: sebaceous adenoma, dosed 103 weeks, study length 104 weeks) 177 mg/kg/day; (rat, strain Fischer 344, males, in feed, site: tunica vaginalis, lesion: mesothelioma, NOS + mesothelioma, malignant, dosed 103 weeks, study length 104 weeks) 44 mg/kg/day; (rat, strain Holtzman albino (Sprague-Dawley derived), females, in feed, site: mammary gland, lesion: fibroadenoma, dosed 36 weeks, study length 54 weeks) 6.52 mg/kg/day. Also, where the note is “rat, strain Sprague-Dawley, females, in feed, site: mammary tissue, wider than the gland, lesion: one or several types, types not named, dosed 46 weeks, study length 66 weeks”, the TD50 was 7.12 mg/kg/day. The carcinogen call (rat, strain Holtzman albino (Sprague-Dawley derived), females, in feed, site: mammary tissue, wider than the gland, lesion: one or several types, types not named, dosed 44 weeks, study length 60 weeks) was “positive”.

As for `CCCCCNN`, the TD50 was 71.9 mg/kg/day (mouse, strain Swiss albino, females, in drinking water, site: blood vessels, lesion: angioma, dosed 94 weeks, study length 94 weeks); 82.2 mg/kg/day (mouse, strain Swiss albino, females, in drinking water, site: blood vessels, lesion: angiosarcoma, dosed 94 weeks, study length 94 weeks); 35.5 mg/kg/day (mouse, strain Swiss albino, females, in drinking water, site: blood vessels, lesion: several types, types named in the paper, dosed 94 weeks, study length 94 weeks); 223 mg/kg/day (mouse, strain Swiss albino, females, in drinking water, site: liver, lesion: several types, types named in the paper, dosed 94 weeks, study length 94 weeks); 18.7 mg/kg/day (mouse, strain Swiss albino, females, in drinking water, site: lung, lesion: adenocarcinoma, dosed 94 weeks, study length 94 weeks); 7.95 mg/kg/day (mouse, strain Swiss albino, females, in drinking water, site: lung, lesion: adenoma, dosed 94 weeks, study length 94 weeks). The TD50 (mouse, strain Swiss albino, females, in drinking water, site: lung, lesion: several types, types named in the paper, dosed 94 weeks, study length 94 weeks) is 5.87 mg/kg/day; the TD50 (mouse, strain Swiss albino, males, in drinking water, site: blood vessels, lesion: several types, types named in the paper, dosed 94 weeks, study length 94 weeks) was found to be 65.6 mg/kg/day; the TD50 (mouse, strain Swiss albino, males, in drinking water, site: liver, lesion: several types, types named in the paper, dosed 94 weeks, study length 94 weeks) was 271 mg/kg/day; the TD50 (mouse, strain Swiss albino, males, in drinking water, site: lung, lesion: adenoma, dosed 94 weeks, study length 94 weeks) stood at 30 mg/kg/day; the TD50 (mouse, strain Swiss albino, males, in drinking water, site: lung, lesion: several types, types named in the paper, dosed 94 weeks, study length 94 weeks) worked out at 46.9 mg/kg/day.

For `N#CN=C(N)N`, the carcinogen call reads like this: (rat, strain F344/DuCrj, females, in feed, site: any site (literature study), lesion: several types, types named in the paper, dosed 104 weeks, study length 113 weeks) “negative (inactive)”; (rat, strain F344/DuCrj, females, in feed, site: liver, lesion: one or several types, types not named, dosed 104 weeks, study length 113 weeks) “negative (inactive)”; (rat, strain F344/DuCrj, males, in feed, site: any site (literature study), lesion: several types, types named in the paper, dosed 104 weeks, study length 113 weeks) “negative (inactive)”. Also, the TD50 is 109000 mg/kg/day (inactive) (rat, strain F344/DuCrj, males, in feed, site: liver, lesion: hepatocellular adenoma, dosed 104 weeks, study length 113 weeks) and 15600 mg/kg/day (inactive) (rat, strain F344/DuCrj, males, in feed, site: subcutaneous tissue, lesion: lipoma, dosed 104 weeks, study length 113 weeks).

Consider `CC(Oc1cc(Cl)ccc1Cl)C(=O)O` (centres undefined), for which the carcinogen call reads like this: (mouse, strain B6AKF1, females, oral dosing, site: any site (literature study), lesion: several types, types named in the paper, dosed 76 weeks, study length 76 weeks) “negative (inactive)”; (mouse, strain B6AKF1, females, oral dosing, site: liver, lesion: hepatoma, dosed 76 weeks, study length 76 weeks) “negative (inactive)”; (mouse, strain B6AKF1, females, oral dosing, site: lung, lesion: adenoma, dosed 76 weeks, study length 76 weeks) “negative (inactive)”; (mouse, strain B6AKF1, males, oral dosing, site: any site (literature study), lesion: several types, types named in the paper, dosed 76 weeks, study length 76 weeks) “negative (inactive)”; (mouse, strain B6AKF1, males, oral dosing, site: liver, lesion: hepatoma, dosed 76 weeks, study length 76 weeks) “negative (inactive)”; (mouse, strain B6AKF1, males, oral dosing, site: lung, lesion: adenoma, dosed 76 weeks, study length 76 weeks) “negative (inactive)”. In addition, the carcinogen call is, setting by setting: (mouse, strain B6C3F1, females, oral dosing, site: any site (literature study), lesion: one or several types, types not named, dosed 76 weeks, study length 76 weeks) “negative (inactive)”; (mouse, strain B6C3F1, females, oral dosing, site: liver, lesion: hepatoma, dosed 76 weeks, study length 76 weeks) “negative (inactive)”; (mouse, strain B6C3F1, females, oral dosing, site: lung, lesion: several types, types named in the paper, dosed 76 weeks, study length 76 weeks) “negative (inactive)”. The TD50 is, setting by setting: (mouse, strain B6C3F1, males, oral dosing, site: any site (literature study), lesion: several types, types named in the paper, dosed 76 weeks, study length 76 weeks) 10.5 mg/kg/day (inactive); (mouse, strain B6C3F1, males, oral dosing, site: liver, lesion: hepatoma, dosed 76 weeks, study length 76 weeks) 36.7 mg/kg/day (inactive); (mouse, strain B6C3F1, males, oral dosing, site: lung, lesion: adenoma, dosed 76 weeks, study length 76 weeks) 36.7 mg/kg/day (inactive).

Take `CC(=O)Nc1ccc(OCC(O)CNC(C)C)cc1` (centres undefined): the carcinogen call is, setting by setting: (mouse, strain AP Alderly Park, females, several routes, site: liver, lesion: one or several types, types not named, dosed 78 weeks, study length 78 weeks) “negative (inactive)”; (mouse, strain AP Alderly Park, females, several routes, site: lung, lesion: one or several types, types not named, dosed 78 weeks, study length 78 weeks) “negative (inactive)”; (rat, strain Alpk:APfSD, females, in feed, site: liver, lesion: one or several types, types not named, dosed 104 weeks, study length 104 weeks) “negative (inactive)”; (rat, strain Alpk:APfSD, males, in feed, site: liver, lesion: one or several types, types not named, dosed 104 weeks, study length 104 weeks) “negative (inactive)”. Also, the TD50 (mouse, strain AP Alderly Park, males, several routes, site: liver, lesion: one or several types, types not named, dosed 78 weeks, study length 78 weeks) is 24300 mg/kg/day (inactive); the TD50 (mouse, strain AP Alderly Park, males, several routes, site: lung, lesion: one or several types, types not named, dosed 78 weeks, study length 78 weeks) is 383 mg/kg/day (inactive); the TD50 (rat, strain Alpk:APfSD, males, in feed, site: pituitary gland, lesion: one or several types, types not named, dosed 104 weeks, study length 104 weeks) was 23.9 mg/kg/day (inactive); the TD50 (rat, strain Alpk:APfSD, males, in feed, site: testis, lesion: one or several types, types not named, dosed 104 weeks, study length 104 weeks) is 194 mg/kg/day (inactive).

`Cc1c(N(C)CS(=O)(=O)O)c(=O)n(-c2ccccc2)n1C`: the TD50 was 7120 mg/kg/day (mouse, strain B6C3F1, females, in drinking water, site: liver, lesion: hepatocellular carcinoma, dosed 75 weeks, study length 86 weeks); 742 mg/kg/day (mouse, strain B6C3F1, females, in drinking water, site: liver, lesion: several types, types named in the paper, dosed 75 weeks, study length 86 weeks); 547 mg/kg/day (mouse, strain B6C3F1, males, in drinking water, site: liver, lesion: several types, types named in the paper, dosed 77 weeks, study length 86 weeks); 400 mg/kg/day (rat, strain F344/DuCrj, males, in drinking water, site: liver, lesion: neoplastic nodule, dosed 72 weeks, study length 83 weeks); 33100 mg/kg/day (inactive) (rat, strain Wistar, females, in feed, site: liver, lesion: adenoma, dosed 104 weeks, study length 130 weeks); 41400 mg/kg/day (inactive) (rat, strain Wistar, females, in feed, site: liver, lesion: angiosarcoma, dosed 104 weeks, study length 130 weeks). Moreover, the TD50 (rat, strain Wistar, females, in feed, site: liver, lesion: liver-cell carcinoma, dosed 104 weeks, study length 130 weeks) was 8330 mg/kg/day (inactive); the TD50 (rat, strain Wistar, females, in feed, site: mammary gland, lesion: adenoma, dosed 104 weeks, study length 130 weeks) is 328 mg/kg/day (inactive); the TD50 (rat, strain Wistar, males, in feed, site: liver, lesion: adenoma, dosed 104 weeks, study length 130 weeks) is 3340 mg/kg/day (inactive). The carcinogen call (rat, strain Wistar, males, in feed, site: liver, lesion: anaplastic carcinoma, dosed 104 weeks, study length 130 weeks) is “negative (inactive)”.

With `Nc1ccc(-c2ccccc2)cc1O`, the carcinogen call (rat, strain Not specified, females, in feed, site: liver, lesion: one or several types, types not named, dosed 43 weeks, study length 65 weeks) is “negative (inactive)”.

Take `CC1=C(C)C(=O)C(C(CCCCCC(=O)O)c2ccccc2)=C(C)C1=O` (centres undefined): the carcinogen call was “negative (inactive)” (rat, strain Fischer 344/Jcl, females, in feed, site: liver, lesion: one or several types, types not named, dosed 52 weeks, study length 52 weeks) and “negative (inactive)” (rat, strain Fischer 344/Jcl, males, in feed, site: liver, lesion: one or several types, types not named, dosed 52 weeks, study length 52 weeks).

Usually TD50 stands for the 50% point of the dose-response relation for the toxic effect studied.
